Experimental data: ChEMBL document CHEMBL5380773, “Novel Feleucin-K3-Derived Peptides Modified with Sulfono-γ-AA Building Blocks Targeting Pseudomonas aeruginosa and Methicillin-Resistant Staphylococcus aureus Infections” (J Med Chem, 2023)
The source made the active and inactive calls. No cut-off for these calls is given here. Numbered stars: 1 amine (or outer) side, 2 acyl side, 3 side chain; on linkers, the order of the positions; unused ones are H or OH. Square brackets hold non-standard residues; d marks the D form. Peptide text beside a SMILES is read from it. * marks the point of attachment. X2 = CC(C)C[C@H](N)CN(CC(=O)[*:2])[*:1]; X1 = O=S(=O)(c1ccc(I)cc1)*

Experiments:
Cell membrane [1] = experiment: Induction of membrane disruption in methicillin resistant Staphylococcus aureus ATCC 33591 assessed as separation […] at 2 to 4 times MIC incubated for 2 to 4 hrs by TEM analysis; format: subcellular; conditions: time 2-4 hrs
Pseudomonas aeruginosa [2] = experiment: Antimicrobial activity against Pseudomonas aeruginosa ATCC 27853 infected in C57BL/6J mouse assessed as reduction in TNF-alpha at 2.5 mg/kg, ip measured after 72 hrs […]; format: functional, organism-based
Staphylococcus aureus [3] = experiment: Antimicrobial activity against methicillin resistant Staphylococcus aureus ATCC 33591 infected in skin wound mouse model assessed as reduction in number of inflammatory cells at 1 to 4 mg/kg measured on day 3 and 7 by H and E staining based assay; format: functional, organism-based; conditions: dose 1-4 mg/kg, time 3-7 day
Staphylococcus aureus [4] = experiment: Antimicrobial activity against methicillin resistant Staphylococcus aureus ATCC 33591 infected in skin wound mouse model assessed as wound healing at 0.25 mg/kg measured upto 10 days by H and E staining based assay; format: functional, organism-based; conditions: time <= 10.0 day
Staphylococcus aureus [5] = experiment: Antibiofilm activity against Staphylococcus aureus ATCC 25923 at 4 to 8 ug/ml incubated for 24 hrs by crystal violet staining based microplate reader analysis; format: functional, organism-based; conditions: dose 4-8 µg/ml
[6] = test system: Staphylococcus epidermidis; experiment: Antibiofilm activity against Staphylococcus epidermidis ATCC 12228 assessed as reduction in biofilm thickness; format: functional, organism-based
Staphylococcus aureus [7] = experiment: (§1) Antimicrobial activity against methicillin resistant Staphylococcus aureus ATCC 33591 infected in BALB/c mouse assessed as biofilm eradication at 0.25 to 1 mg/kg infected with bacteria for 2 hrs prior to compound addition on 1, 24 and 48 hrs and measured after 72 hrs by H and E staining based assay; format: functional, organism-based; conditions: dose 0.25-1 mg/kg
Pseudomonas aeruginosa [8] = experiment: Antibiofilm activity against Pseudomonas aeruginosa ATCC 27853 assessed as reduction in biofilm thickness at 1 times MBIC50 incubated for 24 hrs by confocal laser scanning microscopy analysis (reference value: 90 micrometer); format: functional
DNA [9] = experiment: Binding affinity to Pseudomonas aeruginosa DNA at 8 times MIC incubated for 30 mins; format: nucleic-acid assay
Pseudomonas aeruginosa [10] = experiment: Antimicrobial activity against Pseudomonas aeruginosa ATCC 27853 infected in C57BL/6J mouse assessed as reduction in lung bacterial load at 10 mg/kg, ip measured after 72 hrs […] (reference value: 6.4 10^3CFU/mg); format: functional
Pseudomonas aeruginosa [11] = experiment: Bactericidal activity against Pseudomonas aeruginosa ATCC 27853 at 4 times MIC after 1 hr; format: functional, organism-based
Cell membrane [12] = experiment: Induction of cytoplasmic membrane depolarization in Pseudomonas aeruginosa ATCC 27853 by DiSC35 dye based fluorescence method
Pseudomonas aeruginosa [13] = experiment: Antibiofilm activity against Pseudomonas aeruginosa ATCC 27853 at 4 to 8 ug/ml incubated for 24 hrs by crystal violet staining based microplate reader analysis; format: functional, organism-based; conditions: dose 4-8 µg/ml
Cell membrane [14] = experiment: Induction of outer membrane disruption in Pseudomonas aeruginosa in presence of FeCl3 by NPN uptake assay; format: subcellular
Staphylococcus aureus [15] = experiment: as §1, with “reduction in sessile bacteria attached on catheters surface” for “biofilm eradication”; format: functional, organism-based; conditions: dose 0.25-1 mg/kg
Pseudomonas aeruginosa [16] = experiment: Induction of protein leakage in Pseudomonas aeruginosa ATCC 27853 after 1 to 6 hrs; format: functional, organism-based; conditions: time 1-6 hrs
DNA [17] = experiment: Binding affinity to Staphylococcus epidermidis DNA at 8 times MIC incubated for 30 mins; format: nucleic-acid assay
Staphylococcus aureus [18] = experiment: Antibiofilm activity against methicillin resistant Staphylococcus aureus ATCC 33591 assessed as reduction in biofilm thickness; format: functional, organism-based
DNA [19] = experiment: Binding affinity to methicillin resistant Staphylococcus aureus DNA at 8 times MIC incubated for 30 mins; format: nucleic-acid assay
Pseudomonas aeruginosa [20] = experiment: Induction of DNA leakage in Pseudomonas aeruginosa ATCC 27853; format: functional, organism-based; conditions: TDE = time-dependent effect
Cell membrane [21] = experiment: Induction of outer membrane disruption in Pseudomonas aeruginosa in presence of CaCl2 by NPN uptake assay; format: subcellular
Pseudomonas aeruginosa [22] = experiment: Induction of resistant development in Pseudomonas aeruginosa ATCC 27853 at sub-MIC after 20 days; format: functional, organism-based; conditions: time 20.0 day
Staphylococcus aureus [23] = experiment: Antibiofilm activity against methicillin resistant staphylococcus aureus ATCC 33591 at 4 to 8 ug/ml incubated for 24 hrs by crystal violet staining based microplate reader analysis; format: functional, organism-based; conditions: dose 4-8 µg/ml
Pseudomonas aeruginosa [24] = experiment: Induction of DNA leakage in Pseudomonas aeruginosa ATCC 27853 after 1 to 6 hrs; format: functional, organism-based; conditions: time 1-6 hrs
Staphylococcus aureus [25] = experiment: as §1, with “reduction in inflammatory cell infiltration” for “biofilm eradication”; format: functional, organism-based; conditions: dose 0.25-1 mg/kg
Cell membrane [26] = experiment: Induction of membrane disruption in methicillin resistant Staphylococcus aureus ATCC 33591 assessed as membrane shrinkage at low concentration incubated for 24 hrs by SEM analysis; format: subcellular
Cell membrane [27] = experiment: Induction of membrane disruption in methicillin resistant Staphylococcus aureus ATCC 33591 assessed as membrane blebbing at low concentration incubated for 24 hrs by SEM analysis; format: subcellular
Staphylococcus aureus [28] = experiment: Bactericidal activity against Staphylococcus aureus ATCC 25923 at 4 times MIC after 1 hr by time kill assay; format: functional, organism-based
Pseudomonas aeruginosa [29] = experiment: Antibiofilm activity against Pseudomonas aeruginosa ATCC 27853 at MBIC50; format: functional, organism-based
Pseudomonas aeruginosa [30] = experiment: Induction of ROS generation in Pseudomonas aeruginosa ATCC 27853 by DCFH-DA dye based fluorescence assay; format: functional, organism-based; conditions: TDE = time-dependent effect
DNA [31] = experiment: Binding affinity to Staphylococcus aureus DNA at 8 times MIC incubated for 30 mins; format: nucleic-acid assay
Pseudomonas aeruginosa [32] = experiment: Antibiofilm activity against Pseudomonas aeruginosa ATCC 27853 assessed as reduction in biofilm thickness at 2 times MBIC90 incubated for 24 hrs by confocal laser scanning microscopy analysis; format: functional
Staphylococcus aureus [33] = experiment: Antibiofilm activity against methicillin resistant Staphylococcus aureus ATCC 33591 assessed as reduction in biofilm mass; format: functional, organism-based
[34] = test system: Staphylococcus epidermidis; experiment: Antibiofilm activity against Staphylococcus epidermidis ATCC 12228 assessed as reduction in biofilm mass; format: functional, organism-based
[35] = test system: Staphylococcus epidermidis; experiment: Antibiofilm activity against Staphylococcus epidermidis ATCC 12228 at 4 to 8 ug/ml incubated for 24 hrs by crystal violet staining based microplate reader analysis; format: functional, organism-based; conditions: dose 4-8 µg/ml
Cell membrane [36] = experiment: Induction of membrane disruption in Pseudomonas aeruginosa ATCC 27853 assessed as membrane blebbing at low concentration incubated for 24 hrs by SEM analysis; format: subcellular
Cell membrane [37] = experiment: Induction of membrane disruption in Pseudomonas aeruginosa ATCC 27853 assessed as cell lysis at high concentration incubated for 24 hrs by SEM analysis; format: subcellular
Cell membrane [38] = experiment: Induction of membrane disruption in Pseudomonas aeruginosa ATCC 27853 assessed as membrane shrinkage at low concentration incubated for 24 hrs by SEM analysis; format: subcellular
Cell membrane [39] = experiment: Induction of membrane disruption in Pseudomonas aeruginosa ATCC 27853 assessed as separation of cytoplasmic membrane at 2 to 4 times MIC incubated for 24 hrs by TEM analysis; format: subcellular
Cell membrane [40] = experiment: Induction of membrane disruption in methicillin resistant Staphylococcus aureus ATCC 33591 assessed as irregular atrophy at low concentration incubated for 24 hrs by SEM analysis; format: subcellular
Staphylococcus aureus [41] = experiment: Bactericidal activity against methicillin resistant Staphylococcus aureus ATCC 33591 at 4 times MIC after 1 to 2.5 hrs by time kill assay; format: functional, organism-based; conditions: time 1-2.5 hrs

CC(C)C[C@H](N)CN(CC(=O)N[C@@H](CCCCN)C(=O)N[C@@H](CC(C)C)C(=O)N[C@@H](CC(C)C)C(=O)N[C@@H](CCCCN)C(=O)N[C@@H](CCCCN)C(=O)N[C@@H](CC(C)C)C(=O)N[C@@H](CC(C)C)C(N)=O)S(=O)(=O)c1ccc(I)cc1 (X1-[X2]KLLKKLL-NH2)
Activity (Cell membrane [1]): Active
Activity (Pseudomonas aeruginosa [2]): Active
Activity (Staphylococcus aureus [3]): Active
Activity (Staphylococcus aureus [4]): Active
Activity (Staphylococcus aureus [5]): Active
Activity [6]: Active
Activity (Staphylococcus aureus [7]): Active
Activity (Pseudomonas aeruginosa [8]): 40 um
Activity (DNA [9]): Active
Activity (Pseudomonas aeruginosa [10]): 1 10^3CFU/mg
Activity (Pseudomonas aeruginosa [11]): Active
Activity (Cell membrane [12]): Active
Activity (Pseudomonas aeruginosa [13]): Active
Activity (Cell membrane [14]): Active
Activity (Staphylococcus aureus [15]): Active
Activity (Pseudomonas aeruginosa [16]): Dose-Dependent Effect
Activity (DNA [17]): Active
Activity (Staphylococcus aureus [18]): Active
Activity (DNA [19]): Active
Activity (Pseudomonas aeruginosa [20]): Tde
Activity (Cell membrane [21]): Active
Activity (Pseudomonas aeruginosa [22]): Active
Activity (Staphylococcus aureus [23]): Active
Activity (Pseudomonas aeruginosa [24]): Dose-Dependent Effect
Activity (Staphylococcus aureus [25]): Active
Activity (Cell membrane [26]): Active
Activity (Cell membrane [27]): Active
Activity (Staphylococcus aureus [28]): Active
Activity (Pseudomonas aeruginosa [29]): Active
Activity (Pseudomonas aeruginosa [30]): Tde
Activity (DNA [31]): Active
Activity (Pseudomonas aeruginosa [32]): 60 um
Activity (Staphylococcus aureus [33]): Active
Activity [34]: Active
Activity [35]: Active
Activity (Cell membrane [36]): Active
Activity (Cell membrane [37]): Active
Activity (Cell membrane [38]): Active
Activity (Cell membrane [39]): Active
Activity (Cell membrane [40]): Active
Activity (Staphylococcus aureus [41]): Active
